Assay results reported in US8367873B2, “Phenyl-substituted bicyclooctane-1,3-dione derivatives” (Bayer Cropscience AG, priority 2008, dated 2013).

How the values were obtained:
Assay type in all cases: in vivo
[1] = test system: monocotylidonous and dicotylidonous weed and crop plants; test: Herbicidal post-emergence action (other test plants); settings: post-emergence method, 80 g/ha
Outline: (§1)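 Visual % herbicidal effect vs untreated controls (100% = plants dead, 0% = as control), ~3 wk after spraying. Plants sown in sandy loam, greenhouse-grown, treated at one-leaf stage (2–3 wk post-sowing). WP formulations, 600 l/ha water + 0.2% wetting agent, various doses.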

Lolium multiflorum [2] = test: Herbicidal post-emergence action; settings: post-emergence method, 80 g/ha
Outline: as §1

Setaria viridis [3] = test: Herbicidal post-emergence action; settings: post-emergence method, 80 g/ha
Outline: as §1

Alopecurus myosuroides [4] = test: Herbicidal post-emergence action; settings: post-emergence method, 80 g/ha
Outline: as §1

Echinocloa crus-galli [5] = test: Herbicidal post-emergence action; settings: post-emergence method, 80 g/ha
Outline: as §1

Lolium multiflorum [6] = test: Herbicidal pre-emergence action; settings: pre-emergence method, 80 g/ha, greenhouse, visual assessment vs untreated controls
Outline: (§2)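 Seeds sown in sandy loam and covered; WP-formulated compounds applied to the soil surface as aqueous suspension at 600 l/ha with 0.2% wetting agent, at varying rates. Greenhouse-grown; emergence damage scored visually after three weeks versus untreated controls (100% = plants dead, 0% = like control).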

Setaria viridis [7] = test: Herbicidal pre-emergence action; settings: pre-emergence method, 80 g/ha, greenhouse, visual assessment vs untreated controls
Outline: as §2

Alopecurus myosuroides [8] = test: Herbicidal pre-emergence action; settings: pre-emergence method, 80 g/ha, greenhouse, visual assessment vs untreated controls
Outline: as §2

Echinocloa crus-galli [9] = test: Herbicidal pre-emergence action; settings: pre-emergence method, 80 g/ha, greenhouse, visual assessment vs untreated controls
Outline: as §2

[10] = test system: monocotylidonous and dicotylidonous weed and crop plants; test: Herbicidal pre-emergence action (other test plants); settings: pre-emergence method, 80 g/ha, greenhouse, visual assessment vs untreated controls
Outline: as §2

Row | Structure (SMILES) | herbicidal effect against AVEFA (Avena fatua) [1] [%] | herbicidal effect against LOLMU (Lolium multiflorum) (Lolium multiflorum [2]) [%] | herbicidal effect against SETVI (Setaria viridis) (Setaria viridis [3]) [%] | herbicidal effect against ALOMY (Alopecurus myosuroides) (Alopecurus myosuroides [4]) [%] | herbicidal effect against ECHCG (Echinochloa crus-galli) (Echinocloa crus-galli [5]) [%] | herbicidal effect LOLMU (Lolium multiflorum [6]) [%] | herbicidal effect SETVI (Setaria viridis [7]) [%] | herbicidal effect ALOMY (Alopecurus myosuroides [8]) [%] | herbicidal effect ECHCG (Echinocloa crus-galli [9]) [%] | herbicidal effect AVEFA [10] [%]
1 | C#CC(C)ON=C1CC2C(=O)C(c3c(CC)cc(C)cc3CC)=C(OC(=O)OCC)C2C1 (centres unmarked) [I-c-43] | 0 | 100 | 0 | 100 | 100 | 80 | 0 | 80 | 80 | 40
2 | CCOC(=O)OC1=C(c2c(C)cc(C)cc2C)C(=O)C2CC3(CC12)OCCO3 (centres unmarked) [I-c-44] | 80 | 100 | 90 | 40 | 100 | 100 | 0 | 50 | 0 | 50
3 | CCc1cc(C)cc(CC)c1C1=C([O-])C2CC3(CC2C1=O)OC(C)CC(C)O3.[Na+] (centres unmarked) [I-f-2] | 90 | 100 | 90 | 80 | 100 | 100 | 60 | 90 | 90 | 50
4 | COc1cc(C)cc(C)c1C1=C([O-])C2CC3(CC2C1=O)OCCCO3.[Na+] (centres unmarked) [I-f-4] | 90 | 100 | 100 | 100 | 100 | 100 | 50 | 0 | 90 | 50
5 | COc1cc(C)cc(C)c1C1=C([O-])C2CC3(CC2C1=O)OCCCCO3.[Na+] (centres unmarked) [I-f-5] | 100 | 100 | 100 | 100 | 100 | 90 | 90 | 90 | 70 | 70
6 | COc1cc(C)cc(C)c1C1=C([O-])C2CC3(CC2C1=O)OCCO3.[Na+] (centres unmarked) [I-f-6] | 80 | 100 | 100 | 100 | 100 | 90 | 70 | 60 | 70 | 90
7 | COc1cc(C)cc(C)c1C1=C([O-])C2CC3(CC2C1=O)OCC=CCO3.[Na+] (centres unmarked) [I-f-7] | 100 | 100 | 100 | 100 | 100 | 100 | 90 | 100 | 80 | 70
8 | Cc1cc(C)c(C2=C([O-])C3CC4(CC3C2=O)OCC=CCO4)c(C)c1.[Na+] (centres unmarked) [I-f-8] | 90 | 100 | 100 | 100 | 100 | 100 | 70 | 30 | 0 | 40
9 | Cc1cc(C)c(C2=C([O-])C3CC4(CC3C2=O)OCC(C)CO4)c(C)c1.[Na+] (centres unmarked) [I-f-9] | 90 | 100 | 100 | 80 | 80 | 100 | 50 | 30 | 60 | 50
10 | Cc1cc(C)c(C2=C([O-])C3CC4(CC3C2=O)OCCO4)c(C)c1.[Na+] (centres unmarked) [I-f-11] | 40 | 100 | 80 | 60 | 90 | 100 | 20 | 40 | 0 | 50
11 | CCc1cc(C)cc(CC)c1C1=C([O-])C2CC3(CC2C1=O)OCC=CCO3.[Na+] (centres unmarked) [I-f-12] | 100 | 100 | 100 | 100 | 100 | 70 | 90 | 100 | 100 | 70
12 | CCc1cc(C)cc(CC)c1C1=C([O-])C2CC3(CC2C1=O)OCC(OC)CO3.[Na+] (centres unmarked) [I-f-13] | 100 | 100 | 100 | 100 | 100 | 100 | 90 | 100 | 100 | 0
13 | CCOC1COC2(CC3C(=O)C(c4c(CC)cc(C)cc4CC)=C([O-])C3C2)OC1.[Na+] (centres unmarked) [I-f-14] | 100 | 100 | 100 | 100 | 100 | 100 | 100 | 100 | 100 | 70
14 | CCc1cc(C)cc(CC)c1C1=C([O-])C2CC3(CC2C1=O)OCCO3.[Na+] (centres unmarked) [I-f-15] | 90 | 100 | 100 | 80 | 100 | 100 | 90 | 100 | 100 | 60
